Values of other authors, collected in patent publication EP0408384A1, “N,N'-dicarboxymethyl, N,N'-dicarbamoylmethyl diaminoalkane derivatives and their use in pharmaceutical compositions” (BRITISH TECHNOLOGY GROUP LIMITED, priority 1989, dated 1991).

Test system: daunorubicin toxicity
Conditions: acute daunorubicin toxicity; literature report

SMILES	protection against the lethal effects of daunorubicin
O=C1CN(CCN2CC(=O)N(CN3CCOCC3)C(=O)C2)CC(=O)N1CN1CCOCC1 [bimolane]	give protection
CC(CN1CC(=O)NC(=O)C1)N1CC(=O)NC(=O)C1 (centres unmarked) [compound having R = CH₃ and R′ = R˝ = H]	give protection
